Measurements from US11623919B2, “Heterocyclic P2X7 antagonists” (AXXAM S.P.A., priority 2017, dated 2023).

Key:
Assay in all cases: Screen Quest Fluo-8 No Wash Calcium Assay (Bz-ATP evoked Ca2+ influx, FLIPR)
Format in all cases: cell-based
P2X7 receptor [1] = target: T1, P2X7 receptor (Mus musculus, UniProt Q9Z1M0); conditions: mP2X7; HEK-293 cells stably transfected with P2X7 receptor, Bz-ATP at EC80, Fluo-8 NW; potency ranges A-D
T1 construct: mP2X7 (IC50; nM); other: mP2X7; HEK-293 cells stably transfected with P2X7 receptor, Bz-ATP at EC80, Fluo-8 NW; potency
T1 sequence (Q9Z1M0 1-595): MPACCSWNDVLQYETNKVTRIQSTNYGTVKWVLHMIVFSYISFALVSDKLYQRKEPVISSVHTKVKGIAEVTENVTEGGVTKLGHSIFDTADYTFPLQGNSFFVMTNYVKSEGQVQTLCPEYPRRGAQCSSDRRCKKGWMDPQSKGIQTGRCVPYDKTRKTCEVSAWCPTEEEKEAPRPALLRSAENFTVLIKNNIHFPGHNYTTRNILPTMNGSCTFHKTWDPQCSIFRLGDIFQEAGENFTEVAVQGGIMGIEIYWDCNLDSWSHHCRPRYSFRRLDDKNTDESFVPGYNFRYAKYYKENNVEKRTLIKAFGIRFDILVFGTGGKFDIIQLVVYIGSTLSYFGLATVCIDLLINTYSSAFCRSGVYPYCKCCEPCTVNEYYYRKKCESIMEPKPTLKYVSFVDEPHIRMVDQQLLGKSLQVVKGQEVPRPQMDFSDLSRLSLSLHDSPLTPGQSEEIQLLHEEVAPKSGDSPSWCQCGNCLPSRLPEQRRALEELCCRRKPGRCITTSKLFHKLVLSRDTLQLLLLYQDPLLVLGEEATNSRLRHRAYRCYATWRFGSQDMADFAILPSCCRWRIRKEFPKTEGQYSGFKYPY
Experimental: (§1) Extracellular binding of Bz-ATP to P2X7 receptor opens the channel and allows Ca2+ influx into the cells. […] Once inside the cell, the lipophilic blocking groups of Fluo-8 are cleaved by non-specific cell esterases, resulting in a negatively-charged fluorescent dye that stays inside cells. Its fluorescence increases upon binding to calcium.
(§2) HEK-293 cells stably transfected with P2X7 receptor were seeded overnight in growth medium at 10,000 to 20,000 cell/well in 384-well plate. 24 hours later, the medium was removed and the cells were pre-loaded at RT for 1 hour with 20 μL/w of Fluo-8 NW. Then 10 μL/w of tests compounds and reference antagonist A438079 at 3×-concentration were injected with the […] and the kinetic response over a period of five minutes was monitored. A second injection of 15 μL/w of 3× reference activator (Bz-ATP at EC80) was performed with the […] and the signal of the emitted fluorescence was recorded for additional three minutes. All the experiment was carried out in a Low Divalent Cation Assay Buffer (0.3 mM Ca^2+ and 0 mM Mg^2+). The effect of the test compounds was measured as percent inhibition vs the reference antagonist and IC50 values were calculated accordingly.

P2X7 receptor [2] = target: T2, P2X7 receptor (Rattus norvegicus, UniProt Q64663); conditions: rP2X7; HEK-293 cells stably transfected with P2X7 receptor, Bz-ATP at EC80, Fluo-8 NW; potency ranges A-D
T2 construct: rP2X7 (IC50; nM); other: rP2X7; HEK-293 cells stably transfected with P2X7 receptor, Bz-ATP at EC80, Fluo-8 NW; potency
T2 sequence (Q64663 1-595): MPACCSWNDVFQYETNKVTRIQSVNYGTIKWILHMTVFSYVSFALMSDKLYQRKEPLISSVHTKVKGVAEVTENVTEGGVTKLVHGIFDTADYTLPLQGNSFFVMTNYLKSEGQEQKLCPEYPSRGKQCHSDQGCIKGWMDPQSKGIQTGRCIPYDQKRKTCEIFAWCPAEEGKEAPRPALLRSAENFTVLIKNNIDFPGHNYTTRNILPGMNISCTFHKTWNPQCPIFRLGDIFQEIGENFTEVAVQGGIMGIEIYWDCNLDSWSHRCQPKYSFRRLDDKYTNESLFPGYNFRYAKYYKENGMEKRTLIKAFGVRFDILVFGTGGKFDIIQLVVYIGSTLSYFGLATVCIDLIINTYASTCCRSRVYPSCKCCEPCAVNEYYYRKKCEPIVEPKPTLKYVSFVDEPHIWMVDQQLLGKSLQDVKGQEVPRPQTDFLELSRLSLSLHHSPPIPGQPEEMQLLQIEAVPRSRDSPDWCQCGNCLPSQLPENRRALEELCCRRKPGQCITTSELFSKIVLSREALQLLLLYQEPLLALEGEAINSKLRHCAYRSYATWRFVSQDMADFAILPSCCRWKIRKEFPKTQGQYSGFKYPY
Experimental: as §1, §2

P2X7 receptor [3] = target: T3, P2X7 receptor (Homo sapiens, UniProt Q99572); set-up: hP2X7 (IC50; nM); other: hP2X7; HEK-293 cells stably transfected with P2X7 receptor, Bz-ATP at EC80, Fluo-8 NW; potency; conditions: hP2X7; HEK-293 cells stably transfected with P2X7 receptor, Bz-ATP at EC80, Fluo-8 NW; potency ranges A-D
T3 sequence (Q99572 1-595): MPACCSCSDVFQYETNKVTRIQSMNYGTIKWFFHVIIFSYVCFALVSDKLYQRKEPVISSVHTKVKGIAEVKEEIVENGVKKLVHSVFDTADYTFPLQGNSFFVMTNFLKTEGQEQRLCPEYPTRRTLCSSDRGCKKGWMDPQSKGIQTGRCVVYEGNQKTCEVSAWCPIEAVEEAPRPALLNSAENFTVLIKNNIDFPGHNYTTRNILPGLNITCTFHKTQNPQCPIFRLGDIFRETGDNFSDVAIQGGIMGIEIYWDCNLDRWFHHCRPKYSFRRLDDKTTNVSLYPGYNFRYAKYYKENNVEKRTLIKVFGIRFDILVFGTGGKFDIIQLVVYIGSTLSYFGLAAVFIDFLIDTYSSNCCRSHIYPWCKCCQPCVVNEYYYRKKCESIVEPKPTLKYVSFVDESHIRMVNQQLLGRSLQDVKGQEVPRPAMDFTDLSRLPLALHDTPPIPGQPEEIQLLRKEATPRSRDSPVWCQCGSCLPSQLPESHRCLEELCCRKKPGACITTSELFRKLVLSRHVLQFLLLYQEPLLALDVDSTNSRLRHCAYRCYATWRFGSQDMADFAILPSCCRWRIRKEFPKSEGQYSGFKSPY
Experimental: as §1, §2

| SMILES | IC50 (P2X7 receptor [1]) | IC50 (P2X7 receptor [2]) | IC50 (P2X7 receptor [3]) |
| --- | --- | --- | --- |
| O=c1onc(Cc2c(F)cccc2Cl)n1Cc1ccncc1 [Example 43, 3-[(2-chloro-6-fluorophenyl)methyl]-4-(pyridin-4-ylmethyl)-4,5-dihydro-1,2,4-oxadiazol-5-one] | > 10000 nM | > 10000 nM | > 10000 nM |
| O=c1onc(Cc2c(F)cccc2Cl)n1Cc1cccc2ncccc12 [Example 30, 3-[(2-chloro-6-fluorophenyl)methyl]-4-(quinolin-5-ylmethyl)-4,5-dihydro-1,2,4-oxadiazol-5-one] | 1000 to 10000 nM | 1000 to 10000 nM | 1000 to 10000 nM |
| COc1cccc(Cc2noc(=O)n2Cc2c(F)cccc2Cl)c1 [Example 7, 4-[(2-chloro-6-fluorophenyl)methyl]-3-[(3-methoxyphenyl)methyl]-4,5-dihydro-1,2,4-oxadiazol-5-one] | 1000 to 10000 nM | > 10000 nM | 1000 to 10000 nM |
| O=c1onc(Cc2ccccc2)n1Cc1c(F)cccc1Cl [Example 6, 3-benzyl-4-[(2-chloro-6-fluorophenyl)methyl]-4,5-dihydro-1,2,4-oxadiazol-5-one] | 1000 to 10000 nM | 1000 to 10000 nM | 1000 to 10000 nM |
| O=c1onc(Cc2c(F)cccc2Cl)n1Cc1cccc2ccccc12 [Example 29, 3-[(2-chloro-6-fluorophenyl)methyl]-4-(naphthalen-1-ylmethyl)-4,5-dihydro-1,2,4-oxadiazol-5-one] | 1000 to 10000 nM | > 10000 nM | 1000 to 10000 nM |
| CC(c1c(F)cccc1Cl)c1noc(=O)n1Cc1ccc(F)cc1 (stereo not drawn) [Example 78, 3-[1-(2-chloro-6-fluorophenyl)ethyl]-4-[(4-fluorophenyl)methyl]-4,5-dihydro-1,2,4-oxadiazol-5-one] | > 10000 nM | > 10000 nM | > 10000 nM |
| O=c1onc(Cc2ccccc2F)n1Cc1c(F)cccc1Cl [Example 19, 4-[(2-chloro-6-fluorophenyl)methyl]-3-[(2-fluorophenyl)methyl]-4,5-dihydro-1,2,4-oxadiazol-5-one] | > 10000 nM | 1000 to 10000 nM | 1000 to 10000 nM |
| COc1ccccc1Cn1c(Cc2c(F)cccc2Cl)noc1=O [Example 28, 3-[(2-chloro-6-fluorophenyl)methyl]-4-[(2-methoxyphenyl)methyl]-4,5-dihydro-1,2,4-oxadiazol-5-one] | 1000 to 10000 nM | > 10000 nM | 1000 to 10000 nM |
| COCn1c(Cc2c(F)cccc2Cl)noc1=O [Example 100, 3-[(2-chloro-6-fluorophenyl)methyl]-4-(methoxymethyl)-4,5-dihydro-1,2,4-oxadiazol-5-one] | > 10000 nM | > 10000 nM | > 10000 nM |

More lines, now with the values ahead:

| IC50 (P2X7 receptor [1]) | IC50 (P2X7 receptor [2]) | IC50 (P2X7 receptor [3]) | SMILES |
| --- | --- | --- | --- |
| 200 to 1000 nM | 200 to 1000 nM | < 200 nM | O=c1onc(CN2CCOc3ccccc32)n1Cc1ccc(F)cc1 [Example 228, 3-(3,4-dihydro-2H-1,4-benzoxazin-4-ylmethyl)-4-[(4-fluorophenyl)methyl]-4,5-dihydro-1,2,4-oxadiazol-5-one] |
| > 10000 nM | 1000 to 10000 nM | 1000 to 10000 nM | Cc1noc(C)c1Cc1noc(=O)n1Cc1ccc(F)cc1 [Example 208, 3-[(dimethyl-1,2-oxazol-4-yl)methyl]-4-[(4-fluorophenyl)methyl]-4,5-dihydro-1,2,4-oxadiazol-5-one] |
| 1000 to 10000 nM | 200 to 1000 nM | 200 to 1000 nM | COc1cccc(Cc2noc(=O)n2CC2CCC(F)(F)CC2)c1 [Example 160, 4-[(4,4-difluorocyclohexyl)methyl]-3-[(3-methoxyphenyl)methyl]-4,5-dihydro-1,2,4-oxadiazol-5-one] |
| 1000 to 10000 nM | 1000 to 10000 nM | 1000 to 10000 nM | O=c1onc(Cc2cccc(C(F)(F)F)c2Cl)n1CC1CCCCC1 [Example 113, 3-{[2-chloro-3-(trifluoromethyl)phenyl]methyl}-4-(cyclohexylmethyl)-4,5-dihydro-1,2,4-oxadiazol-5-one] |
| < 200 nM | < 200 nM | < 200 nM | O=c1snc(CC2CCC(F)(F)CC2)n1Cc1c(F)cccc1Cl [Example 203, 4-[(2-chloro-6-fluorophenyl)methyl]-3-[(4,4-difluorocyclohexyl)methyl]-4,5-dihydro-1,2,4-thiadiazol-5-one] |
| 1000 to 10000 nM | > 10000 nM | 1000 to 10000 nM | O=c1onc(Cc2c(F)cccc2Cl)n1CCCC1CCCCC1 [Example 179, 3-[(2-chloro-6-fluorophenyl)methyl]-4-(3-cyclohexylpropyl)-4,5-dihydro-1,2,4-oxadiazol-5-one] |
| 1000 to 10000 nM | 1000 to 10000 nM | 1000 to 10000 nM | O=c1onc(Cc2ccccc2C(F)(F)F)n1Cc1ccc(F)cc1 [Example 105, 4-[(4-fluorophenyl)methyl]-3-{[2-(trifluoromethyl)phenyl]methyl}-4,5-dihydro-1,2,4-oxadiazol-5-one] |
| > 10000 nM | > 10000 nM | > 10000 nM | Cc1noc(Cn2c(CC3CCC(F)(F)CC3)noc2=O)n1 [Example 197, 3-[(4,4-difluorocyclohexyl)methyl]-4-[(3-methyl-1,2,4-oxadiazol-5-yl)methyl]-1,2,4-oxadiazol-5(4H)-one] |
| 1000 to 10000 nM | 1000 to 10000 nM | 1000 to 10000 nM | CC(c1ccccc1)n1c(CC2CCC(F)(F)CC2)noc1=O (stereo not drawn) [Example 188, 3-[(4,4-difluorocyclohexyl)methyl]-4-(1-phenylethyl)-4,5-dihydro-1,2,4-oxadiazol-5-one] |
| 1000 to 10000 nM | 1000 to 10000 nM | 1000 to 10000 nM | O=c1onc(CN2CCOc3ccccc32)n1Cc1c(F)cccc1Cl [Example 229, 4-[(2-chloro-6-fluorophenyl)methyl]-3-(3,4-dihydro-2H-1,4-benzoxazin-4-ylmethyl)-4,5-dihydro-1,2,4-oxadiazol-5-one] |
